In the experiment the test system is lysis of EA. In words: CH50 test of C5 proteins in 1.5% C5-depleted human sera with EA. Format: cell-based. As to conditions: 1.5% C5-depleted human sera supplemented with C5 protein. As for the experimental part:
Recombinant human C5 R885 variants (rhC5 R885C and rhC5 R885H) were prepared in-house ( Supplementary Material ). Their activities on complement activation were examined by the CH50 test using 1.5% C5-depleted human sera supplemented with C5 R885 variants. […] Other procedures and data analysis are described in Section 2.3.
Supplementary Figure 2. Determination of CH50 of the hemolysis by C5 from different sources. Wild type C5 purified from human sera (hC5 compTech) (Complement Technologies), recombinant C5 wild type (rhC5 WT), recombinant C5 variant R885C (rhC5 R885C), and recombinant C5 variant R885H (rhC5 R885H). Various concentrations of protein C5 were added to 1.5% C5-depleted human sera followed by incubation with EA (0.5×) in GVB++ buffer. All data were from 2 plates (duplicate in each plate).

With “rhC5 R885H: Recombinant human C5 variant with single mutation R885H, prepared in-house”, the CH50 was 1.1 nM. The substance “C5 wt: Wild-type human C5, purified from human sera or recombinant (rhC5 wt)” yielded a CH50 of 0.2 to 0.3 nM. The result for “rhC5 R885C: Recombinant human C5 variant with single mutation R885C, prepared in-house” reads 5.2 nM.

Values taken from PMC10446491 (Frontiers in Immunology, 2023).
